# Test results published in US9827210B2, “Treatment or prophylaxis of a neurological or neuropsychiatric disorders via ocular administration” (Phovitreal Pty Ltd, priority 2007, dated 2017).
# What was measured:
# [1] = tested on: rats with experimental Parkinson's disease; test: 6-hydroxy dopamine model of Parkinson's disease in rats, intraocular or intravitreal injection; format: in vivo; conditions: bilateral 6-hydroxy dopamine lesion, 2 μl of 10 mMol solution into vitreous humor of both eyes on days 2, 3 and 4 after surgery, versus PD+IOVeh (70% DMSO)
# Excerpt: At appropriate concentrations, the neurotoxin 6-hydroxy dopamine produces specific and permanent depletion of dopamine in the brain and more specifically of the nigro-striatal dopamine system (Ungerstedt, U. et al, Adv. Neurol., 5, 421, 1974; Willis, G. L. & Armstrong, S. A., Brain Res. Rev., 27, 177, 1998). Intracranial injections of 6-hydroxy dopamine were used to produce a model of Parkinson's disease (and schizophrenia). Bilateral lesions produced a vegetative, akinetic syndrome in which there is a lack of voluntary movement, hunched posture and body weight loss accompanied by a loss in the ability to eat and drink.
# b) After preparatory surgery that permitted access to the brain, rats were induced with bilateral experimental Parkinson's disease by injection of the neurotoxin 6-hydroxy dopamine into the nigro-striatal dopamine system. On days 2, 3 and 4 after surgery a single 2 μl intraocular or intravitreal injection was made into the vitreous humor of both eyes. The solution injected was either a 10 mMol solution of ML-23 (PD+IODrug) or a 10 mMol solution of vehicle (PD+IOVeh). The vehicle used was 70% DMSO. For comparison, a control group was not made Parkinsonian but received intraocular or intravitreal injection of vehicle in the same volume as the experimental groups (C+IOVeh). […]
# [2] = tested on: Sprague-Dawley rats pre-treated with dl-amphetamine; test: dl-amphetamine-induced psychosis in rats, intravitreal injection, motor tests; format: in vivo; conditions: 2 μl of 12.5 μg/μl into vitreous humor after 5 days of 1 mg/kg dl-amphetamine i.p.; measured three hours after injection; versus 80% DMSO vehicle; FIG. 4
# Experimental: Lesions to the brain dopamine systems in mammalian brain serve as models for various neuropsychiatric disorders. When drugs such as amphetamines are administered to animals for a certain period of time psychotic symptoms develop such as increased activity, agitation and decreased latency time to perform various motor tasks. In other words, opposite to those symptoms seen in Parkinson's disease, the time to perform various motor tasks decreased: they perform them quicker.
# At appropriate concentrations, the addictive drug, dl-amphetamine (1 mg/kg) was injected intraperitoneally to produce psychosis and addiction in Sprague-Dawley rats. After 5 days of such treatment each animal was tested for their level of activity in a computerized activity chamber and on three motor tests. On the day after completion of the injections half the animals received a 2 μl injection of haloperidol (12.5 μg/μl) into the vitreous humor, just in front of the retina. The other half of the animals received a 2 μl injection of vehicle (80% DMSO solution) into the vitreous humor. The effects of such injections on various parameters of movement, such as the latency to ambulate and the latency to retract a front paw, were measured three hours after animals received their intravitreal injection. […]
Compound,horizontal movement ([1]; FIG. 1),ability to retract/move the front limb ([1]; FIG. 2),latency to ambulate from a prescribed area [2],latency to retract an elevated limb [2]
COc1ccc2[nH]cc(CCNc3ccc([N+](=O)[O-])cc3[N+](=O)[O-])c2c1 [ML-23],better horizontal movement,better performance on the ability to move the front limb,,
O=C(CCCN1CCC(O)(c2ccc(Cl)cc2)CC1)c1ccc(F)cc1 [haloperidol],,,increased,increased
